# Experiments:
# [1] = target: T1, Recombinant purified human BTK (Homo sapiens, UniProt Q06187); assay: BTK kinase inhibitory activity, ADP-Glo kinase assay (Promega V9071); type: biochemical; conditions: ATP 10 uM, 8 ng BTK per reaction, 1 hour 30 °C, chemiluminescence
# T1 construct: purchased Promega V9071
# In short: (§1)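 IC50 values come from ADP-Glo luminescence after 1 h kinase reactions at 30 °C in 1% DMSO on 0.2 µg/µL Poly(Glu4,Tyr1) substrate. ATP was 10 µM for BTK (8 ng, buffer containing MnCl2) and 5 µM for JAK3 (4 ng), in Tris-Cl pH 7.5/MgCl2/BSA/DTT.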
# [2] = target: T2, Recombinant purified human JAK3 (Homo sapiens, UniProt P52333); assay: JAK3 kinase inhibitory activity, ADP-Glo kinase assay (Promega V9441); type: biochemical; conditions: ATP 5 uM, 4 ng JAK3 per reaction, 1 hour 30 °C, chemiluminescence
# T2 construct: purchased Promega V9441
# T2 sequence (P52333 1-1124): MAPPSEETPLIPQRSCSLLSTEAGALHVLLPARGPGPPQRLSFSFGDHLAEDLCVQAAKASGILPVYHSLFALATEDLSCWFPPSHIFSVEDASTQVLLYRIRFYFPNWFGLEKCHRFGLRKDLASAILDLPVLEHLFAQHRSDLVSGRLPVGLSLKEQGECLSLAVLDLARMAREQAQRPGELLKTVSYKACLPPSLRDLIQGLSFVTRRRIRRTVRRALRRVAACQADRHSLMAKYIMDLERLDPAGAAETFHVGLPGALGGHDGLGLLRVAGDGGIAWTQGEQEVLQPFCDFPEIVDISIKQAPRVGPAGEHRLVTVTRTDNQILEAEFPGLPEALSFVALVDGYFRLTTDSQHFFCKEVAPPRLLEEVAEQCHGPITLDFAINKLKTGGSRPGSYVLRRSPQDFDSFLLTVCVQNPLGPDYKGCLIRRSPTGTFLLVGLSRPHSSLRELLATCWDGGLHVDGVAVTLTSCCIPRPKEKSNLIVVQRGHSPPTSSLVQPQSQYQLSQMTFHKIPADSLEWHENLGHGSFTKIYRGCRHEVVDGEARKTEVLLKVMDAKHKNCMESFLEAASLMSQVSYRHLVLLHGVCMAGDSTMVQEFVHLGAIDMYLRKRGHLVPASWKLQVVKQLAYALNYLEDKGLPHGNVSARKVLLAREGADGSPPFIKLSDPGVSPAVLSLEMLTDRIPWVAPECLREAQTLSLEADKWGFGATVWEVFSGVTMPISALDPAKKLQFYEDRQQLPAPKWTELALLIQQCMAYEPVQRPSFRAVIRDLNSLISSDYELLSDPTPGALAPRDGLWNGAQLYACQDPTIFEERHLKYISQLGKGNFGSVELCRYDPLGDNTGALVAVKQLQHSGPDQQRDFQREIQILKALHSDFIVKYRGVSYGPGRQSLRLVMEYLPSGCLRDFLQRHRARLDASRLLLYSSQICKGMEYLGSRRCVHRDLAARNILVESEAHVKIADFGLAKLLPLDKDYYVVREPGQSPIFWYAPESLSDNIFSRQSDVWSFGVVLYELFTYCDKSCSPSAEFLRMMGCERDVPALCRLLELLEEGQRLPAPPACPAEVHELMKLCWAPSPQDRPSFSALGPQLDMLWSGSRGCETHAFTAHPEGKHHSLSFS
# In short: as §1
# T1 sequence (Q06187 whole entry): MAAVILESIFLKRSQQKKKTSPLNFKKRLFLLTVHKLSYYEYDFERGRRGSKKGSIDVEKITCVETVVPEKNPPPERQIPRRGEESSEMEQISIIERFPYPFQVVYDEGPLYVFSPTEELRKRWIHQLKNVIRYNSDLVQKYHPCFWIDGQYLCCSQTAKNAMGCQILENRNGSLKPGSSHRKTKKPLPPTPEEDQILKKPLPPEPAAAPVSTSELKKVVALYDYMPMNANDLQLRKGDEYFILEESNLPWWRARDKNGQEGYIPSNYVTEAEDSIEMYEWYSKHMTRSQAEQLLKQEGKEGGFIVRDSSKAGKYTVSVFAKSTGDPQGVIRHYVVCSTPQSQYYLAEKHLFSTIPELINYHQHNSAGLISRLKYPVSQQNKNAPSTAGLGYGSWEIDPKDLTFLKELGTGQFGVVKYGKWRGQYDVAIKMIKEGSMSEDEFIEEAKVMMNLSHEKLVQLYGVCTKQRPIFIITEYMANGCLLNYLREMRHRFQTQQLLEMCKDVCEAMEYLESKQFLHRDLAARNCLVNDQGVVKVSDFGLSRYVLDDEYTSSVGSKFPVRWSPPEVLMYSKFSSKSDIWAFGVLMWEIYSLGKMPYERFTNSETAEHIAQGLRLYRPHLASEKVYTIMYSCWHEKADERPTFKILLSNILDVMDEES
SMILES,IC50 [1],IC50 [2]
"C=CC(=O)N1CCC[C@@H](Nc2nc(Nc3cnn(CC(C)C)c3)nc3[nH]cc(Cl)c23)C1 [Example 63, (R)-1-(3-((5-chloro-2-((1-isobutyl-1H-pyrazol-4-yl)amino)-7H-pyrrolo[2,3-d]pyrimidin-4-yl)amino)piperidin-1-yl)prop-2-en-1-one]",1.7 nM,0.3 nM
"C=CC(=O)N1CCC[C@@H](Nc2nc(Nc3cnn(C(F)F)c3)nc3[nH]nc(Cl)c23)C1 [Example 64, (R)-1-(3-((3-chloro-6-((1-(difluoromethyl)-1H-pyrazol-4-yl)amino)-1H-pyrazolo[3,4-d]pyrimidin-4-yl)amino)piperidin-1-yl)prop-2-en-1-one]",1.7 nM,0.7 nM
"C=CC(=O)N1CCC[C@@H](Nc2nc(Nc3cnn(CC(C)C)c3)nc3[nH]ncc23)C1 [Example 65, (R)-1-(3-((6-((1-isobutyl-1H-pyrazol-4-yl)amino)-1H-pyrazolo[3,4-d]pyrimidin-4-yl)amino)piperidin-1-yl)prop-2-en-1-one]",1.7 nM,5.5 nM
"C=CC(=O)N1CCC[C@@H](Nc2nc(Nc3cnn(C(C)(C)C)c3)nc3[nH]ncc23)C1 [Example 66, (R)-1-(3-((6-((1-(tert-butyl)-1H-pyrazol-4-yl)amino)-1H-pyrazolo [3,4-d]pyrimidin-4-yl)amino)piperidin-1-yl)prop-2-en-1-one]",1.7 nM,3.7 nM
"C=CC(=O)N1CCC[C@@H](Nc2nc(Nc3cnn(C4CC4)c3)nc3[nH]ncc23)C1 [Example 67, (R)-1-(3-((6-((1-cyclopropyl-1H-pyrazol-4-yl)amino)-1H-pyrazolo [3,4-d]pyrimidin-4-yl)amino)piperidin-1-yl)prop-2-en-1-one]",1.7 nM,5.7 nM
"C=CC(=O)N1CCC[C@@H](Nc2nc(Nc3ccc(C(=O)N4CCOCC4)cc3)nc3[nH]cc(Cl)c23)C1 [Example 68, (R)-1-(3-((5-chloro-2-((4-(morpholine-4-carbonyl)phenyl)amino)-7H-pyrrolo[2,3-d]pyrimidin-4-yl)amino)piperidin-1-yl)prop-2-en-1-one]",12.1 nM,0.7 nM
"C=CC(=O)N1CCC[C@@H](Nc2nc(Nc3cnn(C)c3)nc3[nH]cc(Cl)c23)C1 [Example 69, (R)-1-(3-((5-chloro-2-((1-methyl-1H-pyrazol-4-yl)amino)-7H-pyrrolo[2,3-d]pyrimidin-4-yl)amino)piperidin-1-yl)prop-2-en-1-one]",8.6 nM,0.3 nM
"C=CC(=O)N1CCC[C@@H](Nc2nc(Nc3cnn(C(C)(C)C)c3)nc3[nH]cc(Cl)c23)C1 [Example 70, (R)-1-(3-((2-((1-(tert-butyl)-1H-pyrazol-4-yl)amino)-5-chloro-7H-pyrrolo[2,3-d]pyrimidin-4-yl)amino)piperidin-1-yl)prop-2-en-1-one]",2.3 nM,0.2 nM
"C=CC(=O)N1CCC[C@@H](Nc2nc(Nc3cnn(C4CCOCC4)c3)nc3[nH]ncc23)C1 [Example 71, (R)-1-(3-((6-((1-(tetrahydro-2H-pyran-4-yl)-1H-pyrazol-4-yl)amino)-1H-pyrazolo[3,4-d]pyrimidin-4-yl)amino)piperidin-1-yl)prop-2-en-1-one]",1.3 nM,2.8 nM
"C=CC(=O)N1CCC[C@@H](Nc2nc(Nc3cnn(CCN4CCOCC4)c3)nc3[nH]ncc23)C1 [Example 72, (R)-1-(3-((6-((1-(2-morpholinoethyl)-1H-pyrazol-4-yl)amino)-1H-pyrazolo[3,4-d]pyrimidin-4-yl)amino)piperidin-1-yl)prop-2-en-1-one]",1.1 nM,2.2 nM

# The next lines start with the values.
IC50 [1],IC50 [2],SMILES
1.1 nM,4.4 nM,"C=CC(=O)N1CCC[C@@H](Nc2nc(Nc3cnn(CCC)c3)nc3[nH]ncc23)C1 [Example 73, (R)-1-(3-((6-((1-propyl-1H-pyrazol-4-yl)amino)-1H-pyrazolo[3,4-d]pyrimidin-4-yl)amino)piperidin-1-yl)prop-2-en-1-one]"
1.7 nM,5.4 nM,"C=CC(=O)N1CCC[C@@H](Nc2nc(Nc3cnn(CCOC)c3)nc3[nH]ncc23)C1 [Example 74, (R)-1-(3-((6-((1-(2-methoayethyl)-1H-pyrazol-4-yl)amino)-1H-pyrazolo[3,4-d]pyrimidin-4-yl)amino)piperidin-1-yl)prop-2-en-1-one]"
4.1 nM,0.2 nM,"C=CC(=O)N1CCC[C@@H](Nc2nc(Nc3cc(C)ns3)nc3[nH]ccc23)C1 [Example 75, (R)-1-(3-((2-((3-methylisothiazol-5-yl)amino)-7H-pyrrolo[2,3-d]pyrimidin-4-yl)amino)piperidin-1-yl)prop-2-en-1-one]"
1 nM,0.3 nM,"C=CC(=O)N1CC[C@@H](F)[C@@H](Nc2nc(Nc3cnn(CC)c3)nc3[nH]ccc23)C1 [Example 76, 1-((3S,4R)-3-((2-((1-ethyl-1H-pyrazol-4-yl)amino)-7H-pyrrolo[2,3-d]pyrimidin-4-yl)amino)-4-fluoropiperidin-1-yl)prop-2-en-1-one]"
1.1 nM,6 nM,"C=CC(=O)N1CC[C@@H](F)[C@@H](Nc2nc(Nc3cnn(CC)c3)nc3[nH]ncc23)C1 [Example 77, 1-((3S,4R)-3-((6-((1-ethyl-1H-pyrazol-4-yl)amino)-1H-pyrazolo [3,4-d]pyrimidin-4-yl)amino)-4-fluoropiperidin-1-yl)prop-2-en-1-one]"
11.5 nM,0.7 nM,"C=CC(=O)N1CCC[C@@H](Nc2nc(Nc3cnn(C4CC4)c3)nc3[nH]cc(C)c23)C1 [Example 78, (R)-1-(3-((2-((1-cyclopropyl-1H-pyrazol-4-yl)amino)-5-methyl-7H-pyrrolo[2,3-d]pyrimidin-4-yl)amino)piperidin-1-yl)prop-2-en-1-one]"
9.2 nM,0.4 nM,"C=CC(=O)N1CCC[C@@H](Nc2nc(Nc3cnn(CC)c3)nc3[nH]cc(C)c23)C1 [Example 79, (R)-1-(3-((2-((1-ethyl-1H-pyrazol-4-yl)amino)-5-methyl-7H-pyrrolo[2,3-d]pyrimidin-4-yl)amino)piperidin-1-yl)prop-2-en-1-one]"
33.3 nM,8.4 nM,"C=CC(=O)N1CCC[C@@H](Nc2nc(Nc3ccc(-n4nc(C)cc4C)cc3)nc3[nH]cc(C)c23)C1 [Example 80, (R)-1-(3-((2-((4-(3,5-dimethyl-1H-pyrazol-1-yl)phenyl)amino)-5-methyl-7H-pyrrolo[2,3-d]pyrimidin-4-yl)amino)piperidin-1-yl)prop-2-en-1-one]"
25.5 nM,3.8 nM,"C=CC(=O)N1CCC[C@@H](Nc2nc(Nc3ccc4ncsc4c3)nc3[nH]cc(C)c23)C1 [Example 81, (R)-1-(3-((2-(benzo[d]thiazol-6-ylamino)-5-methyl-7H-pyrrolo[2,3-d]pyrimidin-4-yl)amino)piperidin-1-yl)prop-2-en-1-one]"
0.9 nM,0.3 nM,"C=CC(=O)N1CCC[C@@H](Nc2nc(Nc3cnn(CC)c3)nc3[nH]cc(F)c23)C1 [Example 82, (R)-1-(3-((2-((1-ethyl-1H-pyrazol-4-yl)amino)-5-fluoro-7H-pyrrolo[2,3-d]pyrimidin-4-yl)amino)piperidin-1-yl)prop-2-en-1-one]"
3.4 nM,1.2 nM,"C=CC(=O)N1CCC[C@@H](Nc2nc(Nc3cc(C)ns3)nc3[nH]cc(F)c23)C1 [Example 83, (R)-1-(3-((5-2-((3-methylisothiazol-5-yl)amino)-7H-pyrrolo[2,3-d]pyrimidin-4-yl)amino)piperidin-1-yl)prop-2-en-1-one]"

# — patent publication EP3478687B1 (Daewoong Pharmaceutical Co., Ltd., priority 2016, dated 2018)
